# Measurements as given in PMC4642645, “Oxacillin sensitization of methicillin-resistant Staphylococcus aureus and methicillin-resistant Staphylococcus pseudintermedius by antisense peptide nucleic acids in vitro” (BMC Microbiology, 2015).
# “And” between values parts separate entries of the source, which are not always exact repeats. Identical values can stand only once.
# How the values were obtained:
# HH-1 [1] = assay: Oxacillin MIC and sensitization broth growth assay (broth microdilution, CLSI); type: cell-based, Staphylococcus pseudintermedius (MRSP); conditions: for Oxacillin MIC with anti-mecA PNA treatment: HH-1, 2.5 μM PNA; for Sensitization to oxacillin in broth microdilution assays: HH-1, PNAs with EJH-L1 or HIV-1 Tat carrier, data not shown
# Protocol: (§1) The MRSA strain NCTC 13142 from Public Health England Culture Collections is a UK epidemic strain type EMRSA-15, SCCmec Type IV, and the MRSP strain HH-1 was isolated from a canine skin infection and is ST71, SCCmecII-III [19]. Bacteria were cultured on Columbia base agar (Oxoid, Basingstoke, UK) supplemented with 5 % horse blood (Oxoid) and 6 μg/ml oxacillin (Sigma Aldrich, UK) at 35 °C for 20 h. Overnight broth cultures were prepared from single bacterial colonies inoculated in 3 ml Mueller Hinton broth (MHB, Oxoid) supplemented with 6 μg/ml oxacillin and incubated at 35 °C for 20 h at 180 rpm on a rotary shaker.
# (§2) The MIC of oxacillin was determined by broth microdilution according to CLSI guidelines. Briefly, overnight broth cultures of MRSA and MRSP were standardized to OD625 = 0.08–0.09 (equivalent to 10^8 CFU/ml) in MHB and further diluted 100-fold to obtain 10^6 CFU/ml. The bacterial suspension was then inoculated at 50 μl per well to a final concentration of 5 × 10^5 CFU/ml. Two-fold serial dilutions of oxacillin (2–512 μg/ml) were added to bacterial cultures at 50 μl per well to a final volume of 100 μl per well, and 96 well plates were incubated at 35 °C for 24 h. MICs were visually scored.
# (§3) Overnight broth cultures were adjusted to 5 × 10^5 CFU/ml per well of a 96 well plate as described above and used either in a broth growth assay or a viable count assay. The broth growth assay was used as an initial screen of PNA efficacy because it was simple to carry out. […] Anti-mecA PNAs were added at either 2.5 or 5 μM. After incubation at 35 °C for 24 h, the MIC of oxacillin in combination with the PNAs in broth cultures were scored visually as recommended by CLSI guidelines.
# NCTC 13142 [2] = assay: as above; type: cell-based, Staphylococcus aureus (MRSA); conditions: for Oxacillin MIC with anti-mecA PNA treatment: NCTC 13142, 5 μM PNA; for Sensitization to oxacillin in broth microdilution assays: NCTC 13142, PNAs with EJH-L1 or HIV-1 Tat carrier, data not shown
# Protocol: as §1, §2, §3
# NCTC 13142 [3] = assay: Oxacillin sensitization viable count assay (CFU on oxacillin plates); type: cell-based, Staphylococcus aureus (MRSA); conditions: for Sensitization to oxacillin (CFU reduction), result in words: NCTC 13142, PNA 2.5, 5, 7.5 μM (Z46: 7.5 μM)
# Protocol: (§4) The viable count assay is more sensitive than the broth assay and was used to assess the effects of PNAs that performed well in the initial screen described above. In the viable count assay, 5 × 10^5 CFU/ml per well of culture was treated either with 2.5, 5 and 7.5 μM of PNA for NCTC 13142, or 1, 2.5 and 5 μM of PNA for HH-1 in MHB at 35 °C for 6 h. […] Agar plates were incubated at 35 °C for 24 h, and dilutions resulting in 30–300 colonies per plate were used to determine the viable count. Experimental repeats were carried out on separate days, and reductions in CFU of treated cultures were normalized to CFU of the untreated control culture on the day. Statistical analysis of CFU reductions was carried out with the paired Student’s t-Test in Microsoft Excel.
# HH-1 [4] = assay: as above; type: cell-based, Staphylococcus pseudintermedius (MRSP); conditions: for Sensitization to oxacillin (CFU reduction), result in words: HH-1, A73 and scrA 1, 2.5, 5 μM, Z46 0.5, 1, 2.5 μM, 6 h, plated on 16 μg/ml oxacillin, n = 3
# Protocol: as §4
# mecA mRNA [5] = assay: mecA mRNA level by RT-qPCR; type: cell-based, Staphylococcus pseudintermedius (MRSP) HH-1; conditions: HH-1, 2.5 μM PNA, no oxacillin, normalized to proC and pyk, average, n = 3
# Protocol: (§5) Growth of cultures in a 96 well plate was monitored by reading the optical density at 550 nm every 5 min, after shaking for 5 s in a microplate reader (Spectramax 340PC, […]). Cultures were harvested when the untreated control culture increased in OD550 ≈ 0.1. Cultures with the same PNA treatment but in different wells across the 96 well plate were pooled for total RNA extraction and DNase I treatment (Ribopure™ Bacteria kit, Life Technologies). RNA was checked for gDNA contamination by qPCR using gyrA primers (Additional file 1: Table S1) and SsoFast™ EvaGreen® Supermix (Bio-Rad) before cDNA synthesis using 50 ng RNA and iScript™ Reverse Transcription Supermix (Bio-Rad). Samples of cDNA were diluted 10-fold and 4 μl used in each qPCR reaction. Non-template controls were included for each primer pair in each run, and technical duplicates for each sample were included in each run.
# (§6) Primer pairs for qPCR were designed by Primer3 with a Tm of 60 °C and product sizes of 100–200 bp (Additional file 1: Table S1). […] Primer efficiencies were determined using 10-fold serial dilutions of cDNA (10 pg-1 μg). […]
# Total RNA and cDNA were prepared as described above. Raw Cq values were analysed in qbase + (Biogazelle, Belgium) with user-defined primer efficiencies (Additional file 1: Table S1) and expression stabilities (M value) of each candidate reference gene fabD, gyrA, proC, pta, pyk, rho, sodA, and tpiA were calculated as the average pairwise variation for each gene with all other tested genes. […] Stepwise exclusion of the gene with the highest M value allowed ranking of the tested genes according to their expression stability, and from this the optimal number of reference genes was calculated. […] Relative mRNA levels were then calculated as induced normalized Cq/uninduced normalized Cq, and analysed with paired Student’s t-Test in Microsoft Excel.
# mecA mRNA [6] = assay: mecA mRNA level by RT-qPCR; type: cell-based, Staphylococcus aureus (MRSA) NCTC 13142
# Protocol: as §5, with “Non-template controls were included for each primer pair in each run, and technical duplicates for each sample were included in each run.” left out
# as §6
# Total RNA and cDNA were prepared as described above. Raw Cq values were analysed in qbase + (Biogazelle, Belgium) with user-defined primer efficiencies (Additional file 1: Table S1) and expression stabilities (M value) of each candidate reference gene fabD, gyrA, proC, pta, pyk, rho, sodA, and tpiA were calculated as the average pairwise variation for each gene with all other tested genes. […]
# NCTC 13142 [7] = assay: Growth inhibition assay (OD550 growth curves); type: cell-based, Staphylococcus aureus (MRSA); conditions: NCTC 13142, MHB with 6 μg/ml oxacillin, PNA 0–7.5 μM, 35 °C, 6 h, OD550, n = 3
# Protocol: (§7) Anti-ftsZ PNAs were tested for effects on growth. Overnight MHB cultures were adjusted to 5 × 10^5 CFU/ml per well of a 96 well plate in MHB supplemented with 6 μg/ml oxacillin as described above. Anti-ftsZ PNA was added to final concentrations of 0, 1, 2.5, 5, 7.5 μM and incubated in a microplate reader (Spectramax 340PC, Molecular Devices) at 35 °C for 6 h. The optical density of the cultures was monitored at 550 nm with readings every 5 min after shaking for 5 s.
# HH-1 [8] = assay: Light microscopy of Gram stained cells (cell morphology); type: cell-based, Staphylococcus pseudintermedius (MRSP); conditions: HH-1, 2.5 μM PNA, 6 h at 35 °C, 1000 × magnification
# Protocol: (§8) Bacterial cultures were treated with anti-ftsZ PNA Z46 in broth as described in the viable count assay. After 6 h at 35 °C, cultures were pelleted, washed once in PBS, and re-suspended in 1/10 of original volume of the culture in PBS. Ten microliter aliquots were heat-fixed, Gram stained, and viewed under a light microscope (Olympus BX60) at 1000 × magnification. Images were captured using the Image-Pro Plus 5.0 (MediaCybernetics), and counting of purple and pink cells were carried out using ImageJ 1.44o (National Institute of Health, USA).
# HH-1 [9] = assay: Growth inhibition assay (OD550 growth curves); type: cell-based, Staphylococcus pseudintermedius (MRSP); conditions: HH-1, MHB with 6 μg/ml oxacillin, PNA 0–7.5 μM, 35 °C, 6 h, OD550, n = 3
# Protocol: as §7
# NCTC 13142 [10] = assay: Light microscopy of Gram stained cells (cell morphology); type: cell-based, Staphylococcus aureus (MRSA); conditions: NCTC 13142, 7.5 μM PNA, 6 h at 35 °C, 1000 × magnification
# Protocol: as §8
# [11] = MHB, 35 °C, 24 h, scored visually, n=2
# [12] = 6 h, plated on 16 μg/ml oxacillin, n = 3
compound,measurement,setting,value
"Cc1onc(-c2ccccc2)c1C(=O)N[C@@H]1C(=O)N2[C@@H]1SC(C)(C)[C@@H]2C(=O)O [Oxacillin, oxacillin]",Oxacillin MIC,"HH-1 [1]; HH-1, 0 μM PNA, MHB, 35 °C, 24 h, scored visually, n=2",512 µg/mL
same,MIC,"HH-1 [1]; Staphylococcus pseudintermedius, 24 h, HH-1, 0 μM PNA, MHB, 35 °C, scored visually, n=2",≥ 256 µg/mL
same,Oxacillin MIC,"NCTC 13142 [2]; NCTC 13142, 0 μM PNA, MHB, 35 °C, 24 h, scored visually, n=2",256 µg/mL and 512 µg/mL
same,MIC,"NCTC 13142 [2]; Staphylococcus aureus, NCTC13142, 24 h, NCTC 13142, 0 μM PNA, MHB, 35 °C, 24 h, scored visually, n=2",≥ 256 µg/mL
"KFFKFFKFFK-O-caatatcctc-CONH2 [A101, anti-mecA PNA (−10 to −1) conjugated to cell-penetrating peptide …]",Oxacillin MIC with anti-mecA PNA treatment,HH-1 [1]; [11],256 µg/mL
same,Oxacillin MIC with anti-mecA PNA treatment,NCTC 13142 [2]; [11],512 µg/mL
KFFKFFKFFK-O-cactataatc-CONH2 [scrA],"Sensitization to oxacillin (CFU reduction), result in words",NCTC 13142 [3]; [12],did not have an effect
same,"Sensitization to oxacillin (CFU reduction), result in words",HH-1 [4],significant sensitization
same,Reduction of mecA transcripts,mecA mRNA [5],did not have a significant effect
"KFFKFFKFFK-O-catcaatatc-CONH2 [A73, anti-mecA PNA (−7 to +3) conjugated to cell-penetrating peptide …]","mecA mRNA, result in words","mecA mRNA [6]; MRSA, 7.5 μM PNA, p < 0.05",reduced
same,Reduction of mecA transcripts,"mecA mRNA [6]; NCTC 13142, 5 μM PNA, no oxacillin, normalized to pta and gyrA, average, n = 3",38%
same,Oxacillin MIC with anti-mecA PNA treatment,HH-1 [1]; [11],64 µg/mL
same,Sensitization of broth cultures to oxacillin,"HH-1 [1]; HH-1, 2.5–5 μM PNA, initial screening",4–8 fold
same,Oxacillin MIC with anti-mecA PNA treatment,NCTC 13142 [2]; [11],128 µg/mL
same,Sensitization of broth cultures to oxacillin,"NCTC 13142 [2]; NCTC 13142, 2.5–5 μM PNA, initial screening",4–8 fold
same,MRSA cells killed by oxacillin,"NCTC 13142 [3]; 7.5 μM PNA, 6 h at 35 °C, plated on MH agar with 16 μg/ml oxacillin, relative to untreated control",66%
same,"Sensitization to oxacillin (CFU reduction), result in words",NCTC 13142 [3]; [12],significantly sensitized
same,MRSP cells killed by oxacillin,"HH-1 [4]; 2.5 μM PNA, 6 h at 35 °C, plated on MH agar with 16 μg/ml oxacillin, relative to untreated control",92%
same,"Sensitization to oxacillin (CFU reduction), result in words",HH-1 [4],significantly sensitized
same,Reduction of mecA transcripts,mecA mRNA [5],40%
same,Reduction of mecA transcripts,mecA mRNA [5]; listed as Anti-mecA PNA,reduced
"KFFKFFKFFK-eg1-AATTACTATA-NH2 [scrZ, scrambled control PNA for anti-ftsZ PNAs conjugated to the (KFF)3K peptide]",Concentration that inhibited growth,NCTC 13142 [7],not growth inhibitory
same,CFU reduction of NCTC 13142,"NCTC 13142 [3]; 7.5 μM PNA, 6 h, plated on 16 μg/ml oxacillin, ratio to untreated control, mean, n = 3",44%
same,Cell morphology after Gram stain,HH-1 [8],appeared normal
same,Concentration that inhibited growth,HH-1 [9],2.5 µM
same,Cell morphology after Gram stain,NCTC 13142 [10],appeared normal
"KFFKFFKFFK-eg1-TTCTAACATT-NH2 [Z19, anti-ftsZ PNA (−1 to +9) conjugated to the (KFF)3K peptide]",Concentration that inhibited growth,NCTC 13142 [7],ineffective
"KFFKFFKFFK-eg1-atcaatatcc-CONH2 [A82, anti-mecA PNA (−8 to +2) conjugated to cell-penetrating peptide …]",Oxacillin MIC with anti-mecA PNA treatment,HH-1 [1]; [11],256 µg/mL
same,Oxacillin MIC with anti-mecA PNA treatment,NCTC 13142 [2]; [11],128 µg/mL
"KFFKFFKFFK-eg1-ttcatcaata-CONH2 [A55, anti-mecA PNA (−5 to +5) conjugated to cell-penetrating peptide …]",Oxacillin MIC with anti-mecA PNA treatment,HH-1 [1]; [11],512 µg/mL
same,Oxacillin MIC with anti-mecA PNA treatment,NCTC 13142 [2]; [11],256 µg/mL
"MINWKLRLKNK-O-cactataatc-CONH2 [scrA-EJH, scrambled PNA conjugated to EJH-L1 peptide (…)]",Sensitization to oxacillin in broth microdilution assays,HH-1 [1],did not have an effect
same,Sensitization to oxacillin in broth microdilution assays,NCTC 13142 [2],did not have an effect
MINWKLRLKNK-O-catcaatatc-CONH2 [A73-EJH],Sensitization to oxacillin in broth microdilution assays,HH-1 [1],2 fold
same,Sensitization to oxacillin in broth microdilution assays,NCTC 13142 [2],2 fold
"YGRKKRRQRRR-O-cactataatc-CONH2 [scrA-Tat, scrambled PNA conjugated to HIV 1-Tat peptide (…)]",Sensitization to oxacillin in broth microdilution assays,HH-1 [1],did not have an effect
same,Sensitization to oxacillin in broth microdilution assays,NCTC 13142 [2],did not have an effect
YGRKKRRQRRR-O-catcaatatc-CONH2 [A73-Tat],Sensitization to oxacillin in broth microdilution assays,HH-1 [1],2 fold
same,Sensitization to oxacillin in broth microdilution assays,NCTC 13142 [2],2 fold
